This experiment deals with SZ95 human sebocytes. Put plainly: High content imaging assay to quantify lipid droplets in a human sebocyte cell line. The note with it: 48 hours incubation, Bodipy neutral lipid staining, read-out: Human SZ95 Sebocyte Lipid Imaging Assay / Percent Inhibition of Lipid Droplets IC50. Format: cell-based. Here is the method:
High content imaging assay to quantify lipid droplets in a human sebocyte cell line One week prior to cell dosing, SZ95 human sebocytes were thawed and grown in a T175 tissue culture flask containing 50 mL media. Media was prepared as follows: Sebomed basal medium with stable glutamine and without phenol red (Sigma; Catalog No. F8205), 10% heat inactivated fetal bovine serum (Invitrogen; Cat. No. 10082), 5 ng/mL recombinant human epidermal growth factor (Gibco; Catalog No. PHG0311), 1 mM calcium chloride (Fisher Scientific; Catalog No. BP9742), and 1X penicillin/streptomycin (Thermo Fisher; Catalog No. 15140-122). Cells were cultured at 37° C. and the media was replaced every 48-72 hours until start of assay. Compounds were delivered as a 75 nL spot by the Echo 550 (Labcyte) into 384-well assay plates (PerkinElmer; Catalog No. 6057308) with final compound concentrations of […], 0.003, 0.001, 0.0003, and 0.0001 μM. The final DMSO concentration was 0.1%. SZ-95 cells were washed with Dulbecco's phosphate buffered saline (DPBS, Lonza; Catalog No. 17-512Q) and then detached with 0.25% Trypsin-EDTA (Gibco; Catalog No. 25200056). Growth media (25 mL) was added to the flask and the cells were further diluted to 1.33×10∧5 cells/mL. SZ-95 cells were plated at a density of 10,000 cells/well in 75 μL and incubated for 48 hours at 37° C. Using the Biomek FX (Beckman), 25 μL of media was removed and the cells were fixed by adding 18.7 μL of 16% paraformaldehyde (Electron Microscopy Sciences; Cat. No. 50980488). After a 30 minute incubation at room temperature, the plates were washed twice with 75pi DPBS. Following the second wash, all remaining DPBS was removed. Staining solution was prepared with 2 μM Bodipy (Invitrogen; Cat. No D3922, diluted 1:1000) and Hoechst (Life Technologies; Cat. No. H3570, diluted 1:2000) in DPBS. Using the Biomek FX, 30 μL of the staining solution was added to each well. The cells were incubated for 20 minutes at room temperature, then washed once with 75 μL DPBS. Finally, 30 μL of DPBS was added to each well and the plates were sealed with light blocking film. The plates were read on an Opera Phenix (PerkinElmer) for high content imaging. Nuclei were detected by Hoechst staining and lipid droplets by Bodipy, which stains neutral lipids. […] The percent (%) effect at each concentration of compound is calculated by Genedata Screener analysis program using a four-parameter logistic dose response equation and is based on and relative to the amount of lipid droplets in the positive and negative control wells contained within each assay plate to determine the 50% inhibition concentration (IC50).
Turning to `CCOc1cc(C(=O)N2CCC3(CC2)CC(=O)c2nc(C(C)(C)C)sc2C3)cc2c(C)n[nH]c12` [Example 1, 2-(tert-butyl)-1′-(7-ethoxy-3-methyl-1H-Indazole-5-carbonyl)-5H-spiro[benzo[d]thiazole-6,4′-piperidin]-4(7H)-one], the IC50 came to 0.01 µM.
`CCOc1cc(C(=O)N2CCC3(CC2)Cc2sc(C(C)(C)C)nc2C(O)C3)cc2c(C)nn(C)c12` (racemic) [Example 4, rac-(R)-(2-(tert-butyl)-4-hydroxy-4,7-dihydro-5H-spiro[benzo[d]thiazole-6,4′-piperidin]-1′-yl)(7-ethoxy-1,3-dimethyl-1H-indazol-5-yl)methanone]: the IC50 was 0.02 µM.
The value for `CCOc1cc(C(=O)N2CCC3(CC2)Cc2sc(C(C)(C)C)nc2[C@H](O)C3)cc2c(C)nn(C)c12` [Example 4a, (R)-(2-(tert-butyl)-4-hydroxy-4,7-dihydro-5H-spiro[benzo[d]thiazole-6,4′-piperidin]-1′-yl)(7-ethoxy-1,3-dimethyl-1H-indazol-5-yl)methanone] was 0.122 µM; that for `CCOc1cc(C(=O)N2CCC3(CC2)Cc2sc(C(C)(C)C)nc2[C@@H](O)C3)cc2c(C)nn(C)c12` [Example 4b] was 0.007 µM; that for `Cc1nn(C)c2c(O)cc(C(=O)N3CCC4(CC3)CC(=O)c3nc(C(C)(C)C)sc3C4)cc12` [Example 2] was 0.011 µM.
The value for `CCOc1cc(C(=O)N2CCC3(CC2)CC(=O)c2nc(C(C)(C)CO)sc2C3)cc2c(C)nn(C)c12` [Example 3, 1′-(7-ethoxy-1,3-dimethyl-1H-Indazole-5-carbonyl)-2-(1-hydroxy-2-methylpropan-2-yl)-5H-spiro[benzo[d]thiazole-6,4′-piperidin]-4(7H)-one] was 0.016 µM; that for `Cc1nn(C)c2c(O)cc(C(=O)N3CCC4(CC3)CC(=O)c3nc(C(C)(C)CO)sc3C4)cc12` [Example 8] was more than 0.000145 µM.

The values are drawn from patent publication US20250206756A1, “INHIBITORS” (Pfizer Inc., priority 2023, published 2025).
